Test results from patent US20070092551A1, “Therapeutic agent” (TAKARA BIO INC., priority 2003, published 2007).

Key:
[1] = tested on: type II diabetes model mouse; assay: Glucose tolerance test, 4-hydroxyderricin and combined use with xanthoangelol; format: in vivo; details: male KK-Ay mice
Description: Amelioration effects for glucose tolerance by 4-hydroxyderricin and combined use of 4-hydroxyderricin and xanthoangelol were examined using a type II diabetes model mouse. Experiments were carried out with five male 12-week old KK-Ay mice (CLEA Japan, Inc.) per group. 4-Hydroxyderricin which was previously suspended or dissolved in an olive oil so as to have a concentration of 4% (w/v) was forcibly orally administered to a group to be administered with 4-hydroxyderricin at 200 mg/kg once a day for consecutive days. 4-Hydroxyderricin and xanthoangelol which were each suspended or dissolved in an olive oil to 4% (w/v) were mixed in equal volumes, and the mixture was forcibly orally administered to a group to be administered with a combined use of 4-hydroxyderricin and xanthoangelol once a day for consecutive days so that each administration concentration became 100 mg/kg. An olive oil was administered to the mice in the control group at 5 mL/kg in the same manner. The mice were fasted over one night spanning from the fifteenth day to the sixteenth day from administration, and a glucose tolerance test was carried out. Four hours after the administration of the sample, a 10% glucose solution was intraperitoneally administered at 1 g/kg. Thirty minutes before glucose tolerance and 30 minutes after the tolerance, blood was collected from veins of the tail, and the blood glucose level was determined with a simple blood glucose meter, ACCU-CHEK Compact (Roche Diagnostic K.K.).

[2] = tested on: mature adipocytes (3T3-L1 cells); assay: Glucose uptake enhancement inhibited by cytochalasin B; format: cell-based
Description: The influence of cytochalasin B on 2-deoxyglucose uptake into matured adipocytes during the stimulation with the sample in the adipocytes was tested in accordance with the method shown in Example 83 on whether or not the enhancing action of 4-hydroxyderricin on glucose uptake shown in Example 83 is inhibited by cytochalasin B, which is an inhibitor of a glucose transporter.
Specifically, as a sample, a group with addition of a dimethyl sulfoxide solution of 4-hydroxyderricin so as to have a final concentration of 7.8 μM was set. Here, there were set a group without addition of the sample as a negative control and a group with addition of insulin so as to have a final concentration of 1 μg/mL as a positive control. Furthermore, there was set a group with addition of cytochalasin B (manufactured by nacalai tesque, 10435-81) to each group so as to have a final concentration of 40 μM in the same time as the time of addition of insulin. Thereafter, 2-deoxy-[1,2-^3H(N)]-glucose subjected to uptake into the adipocytes was determined in the same manner.

[3] = tested on: KK-Ay mice; assay: Glucose tolerance test, xanthoangelol; format: in vivo; details: female KK-Ay mice, 200 mg/kg oral once a day
Description: Amelioration effects for glucose tolerance of xanthoangelol were examined using female 12-week old KK-Ay mice. Xanthoangelol which was previously suspended or dissolved in an olive oil in a concentration of 4% (w/v) was forcibly orally administered to a group to be administered with xanthoangelol at 200 mg/kg once a day for consecutive days. An olive oil was administered to the mice in the control group at 5 mL/kg in the same manner. The mice were fasted over one night spanning the sixteenth day to the seventeenth day from administration, and the glucose tolerance test was carried out in the same manner as in Example 91.

[4] = tested on: type II diabetes model mice; assay: Amelioration effects on diabetes of xanthoangelol (blood glucose level, serum insulin); format: in vivo; details: female KK-Ay mice
Description: Pathological amelioration effects of xanthoangelol were examined using type II diabetes model mice. Experiments were carried out with five female 12-week old KK-Ay mice (CLEA Japan, Inc.) per group. Xanthoangelol was suspended or dissolved in an olive oil so as to have a concentration of 4% (w/v), and the suspension or solution was forcibly orally administered to the mice once a day at 200 mg/kg for consecutive days. The olive oil was administered to mice in the control group at 5 mL/kg in the same manner. On the day before the beginning of administration, on the fourth day and on the twenty-second day, the blood glucose level was determined in the same manner as in Example 88. In addition, on the twenty-second day, blood was simultaneously collected from abdominal cava, and the insulin concentration in serum was determined with Lebis Insulin Kit (Shibayagi Co., Ltd.). […] During the experimental period, no changes were found in body weight and general symptoms.

[5] = 200 mg/kg oral once a day in olive oil, mean ± standard error

| SMILES | amelioration effects for glucose tolerance (in words) ([1]; 4-hydroxyderricin 200 mg/kg alone or combined use 100 mg/kg each) | Blood Glucose Level, Before Glucose Tolerance ([1]; 200 mg/kg oral once a day, sixteenth day, fasted, 30 minutes before glucose 1 g/kg i.p.) [mg/dL] | Blood Glucose Level, 30 Minutes After Tolerance ([1]; 200 mg/kg oral once a day, sixteenth day, fasted, glucose 1 g/kg i.p.) [mg/dL] | 2-deoxy-[1,2-3H(N)]-glucose uptake ([2]; 4-hydroxyderricin 7.8 μM, compared to the negative control) | 2-deoxy-[1,2-3H(N)]-glucose uptake on addition of cytochalasin B ([2]; cytochalasin B 40 μM added to the 4-hydroxyderricin 7.8 μM, insulin 1 μg/mL and negative control groups) | action on the elevation in the blood glucose level after the glucose tolerance (in words) [3] | Blood Glucose Level, Before Glucose Tolerance ([3]; seventeenth day, fasted) [mg/dL] | Blood Glucose Level, 30 Minutes After Tolerance ([3]; seventeenth day, fasted, glucose 1 g/kg i.p.) [mg/dL] | action of ameliorating insulin resistance ([4]; 200 mg/kg oral once a day) | blood glucose level and insulin concentration (in words) ([4]; 200 mg/kg oral once a day) | Blood Glucose Level, Fourth Day [4, 5] [mg/dL] | Blood Glucose Level, Twenty-second Day [4, 5] [mg/dL] | changes in body weight and general symptoms ([4]; 200 mg/kg oral once a day, experimental period) | Blood Glucose Level, Previous Day ([4]; day before beginning of administration, 200 mg/kg oral once a day in olive oil, mean ± standard error) [mg/dL] | Insulin (concentration in serum) ([4]; twenty-second day, 200 mg/kg oral once a day in olive oil, mean ± standard error) [ng/mL] |
| --- | --- | --- | --- | --- | --- | --- | --- | --- | --- | --- | --- | --- | --- | --- | --- |
| COc1ccc(C(=O)/C=C/c2ccc(O)cc2)c(O)c1CC=C(C)C [4-Hydroxyderricin, 4,2′-Dihydroxy-3′-prenyl-4′-methoxychalcone] | amelioration effects for glucose tolerance were found | 93 ± 2 | 224 ± 11 | enhancement of 2-deoxy-[1,2-^3H(N)]-glucose uptake | almost completely inhibited | – | – | – | – | – | – | – | – | – | – |
| CC(C)=CCC/C(C)=C/Cc1c(O)ccc(C(=O)/C=C/c2ccc(O)cc2)c1O [Xanthoangelol, 4,2′,4′-Trihydroxy-3′-geranylchalcone] | – | – | – | – | – | suppressive action | 106 ± 7 | 234 ± 15 | action of ameliorating insulin resistance was found | lowered | 192 ± 16 | 209 ± 8 | no changes | 249 ± 13 | 31 ± 7 |
